Test results published in ChEMBL document CHEMBL4417636, “Small molecule inhibitors of pendrin ion exchange and pharmaceutical compositions” (2017).
Activity calls are given as the source filed them. The calls are words filed in the database; no cut-off is given here.

Key:
Pendrin = target: T1, Pendrin (Homo sapiens, UniProt O43511); test: Inhibition of human pendrin expressed in FRT cells co-expressing EYFP-HIF assessed as reduction in pendrin-mediated Cl(-)/r exchange incubated for 10 mins by pH-sensitive fluorescent probe BCECF-AM based fluorescence assay relative to control; type: cell-based
T1 sequence (O43511 whole entry): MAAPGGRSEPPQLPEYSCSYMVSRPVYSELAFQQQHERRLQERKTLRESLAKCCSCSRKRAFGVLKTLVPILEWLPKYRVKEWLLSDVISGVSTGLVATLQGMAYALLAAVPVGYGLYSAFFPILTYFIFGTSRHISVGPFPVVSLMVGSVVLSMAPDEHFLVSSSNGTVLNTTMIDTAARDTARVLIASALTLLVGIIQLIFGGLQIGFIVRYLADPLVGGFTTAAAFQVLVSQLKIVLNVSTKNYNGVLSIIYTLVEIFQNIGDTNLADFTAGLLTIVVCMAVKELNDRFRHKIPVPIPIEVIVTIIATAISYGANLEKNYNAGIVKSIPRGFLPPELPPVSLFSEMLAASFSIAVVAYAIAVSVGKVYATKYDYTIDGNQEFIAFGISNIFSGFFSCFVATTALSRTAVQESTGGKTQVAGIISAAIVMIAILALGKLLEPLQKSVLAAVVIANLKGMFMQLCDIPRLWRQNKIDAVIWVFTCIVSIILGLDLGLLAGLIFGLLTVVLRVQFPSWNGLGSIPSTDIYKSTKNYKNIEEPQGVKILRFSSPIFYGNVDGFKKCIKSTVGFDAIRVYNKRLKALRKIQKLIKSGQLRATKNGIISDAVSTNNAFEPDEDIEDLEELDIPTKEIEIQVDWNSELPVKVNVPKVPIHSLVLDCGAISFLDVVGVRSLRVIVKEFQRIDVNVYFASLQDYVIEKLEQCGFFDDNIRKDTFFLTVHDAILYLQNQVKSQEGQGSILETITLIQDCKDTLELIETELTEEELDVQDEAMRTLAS

Pendrin (Mus musculus) [1] = target: T2, Pendrin (Mus musculus) (UniProt Q9R155); test: Inhibition of mouse pendrin expressed in FRT cells co-expressing YFP-HIF assessed as reduction in pendrin-mediated exchange of Cl(-) with SCN(-) by pH-sensitive fluorescent probe BCECF-AM based fluorescence assay relative to control; type: cell-based
T2 sequence (whole entry): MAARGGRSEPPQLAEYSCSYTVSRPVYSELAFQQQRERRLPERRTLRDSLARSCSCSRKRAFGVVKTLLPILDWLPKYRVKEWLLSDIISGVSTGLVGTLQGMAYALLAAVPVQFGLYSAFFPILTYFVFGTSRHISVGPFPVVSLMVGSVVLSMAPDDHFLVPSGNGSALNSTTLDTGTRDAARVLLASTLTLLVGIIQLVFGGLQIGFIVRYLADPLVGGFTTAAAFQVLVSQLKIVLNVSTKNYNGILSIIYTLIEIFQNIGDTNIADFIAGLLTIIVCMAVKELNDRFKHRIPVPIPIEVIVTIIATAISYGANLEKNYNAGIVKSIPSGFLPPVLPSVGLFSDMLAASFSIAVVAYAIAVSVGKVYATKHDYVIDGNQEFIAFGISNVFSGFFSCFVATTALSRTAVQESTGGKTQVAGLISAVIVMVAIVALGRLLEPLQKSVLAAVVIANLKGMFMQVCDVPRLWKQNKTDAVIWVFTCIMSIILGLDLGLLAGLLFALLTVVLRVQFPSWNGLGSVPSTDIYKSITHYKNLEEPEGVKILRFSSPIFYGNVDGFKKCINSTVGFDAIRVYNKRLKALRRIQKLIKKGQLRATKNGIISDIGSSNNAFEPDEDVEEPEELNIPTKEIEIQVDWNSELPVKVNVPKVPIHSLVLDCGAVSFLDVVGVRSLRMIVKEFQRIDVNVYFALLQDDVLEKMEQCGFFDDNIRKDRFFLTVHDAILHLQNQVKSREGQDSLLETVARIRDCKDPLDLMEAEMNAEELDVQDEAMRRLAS

Pendrin (Mus musculus) [2] = target: T2, Pendrin (Mus musculus); test: Inhibition of mouse pendrin expressed in FRT cells co-expressing YFP-HIF assessed as reduction in pendrin-mediated kinetics of CI7HCO3(-) exchange by pH-sensitive fluorescent probe BCECF-AM based fluorescence assay relative to control; type: cell-based
Mus musculus [3] = test: Potentiation of 20 mg/kg, ip furosemide-induced acute diuretic action in CD1 mouse assessed as effect on urine pH at 10 mg/kg, ip relative to control; type: functional, organism-based
Mus musculus [4] = test: Potentiation of 20 mg/kg, ip furosemide-induced acute diuretic action in CD1 mouse assessed as induction of metabolic alkalosis at 10 mg/kg, ip; type: functional, organism-based
Mus musculus [5] = test: Potentiation of 20 mg/kg, ip furosemide-induced acute diuretic action in CD1 mouse assessed as increase in urinary Na+ excretion at 50 mg/kg, ip measured at 3 hrs relative to control; type: functional, organism-based
Pendrin (Homo sapiens) [6] = target: T3, Pendrin (Homo sapiens) (UniProt O43511); test: Inhibition of human pendrin expressed in FRT cells co-expressing EYFP-HIF assessed as reduction in pendrin-mediated C17HCO3(-) exchange by measuring reduction in cytoplasmic alkalinization exchange at 2.5 uM by pH-sensitive fluorescent probe BCECF-AM based fluorescence assay relative to control; type: cell-based
T3 sequence (whole entry): T1 sequence (O43511 whole entry)

Homo sapiens [7] = species: Homo sapiens; test: Inhibition of potassium channel in human bronchial epithelial cells assessed as effect on short-circuit current at 25 uM pre-incubated for 30 mins
Homo sapiens [8] = species: Homo sapiens; test: Effect on gluconate gradient-induced Cl/HC03- efflux in NHBE cells at 25 uM; type: functional, cell-based
Pendrin (Homo sapiens) [9] = target: T3, Pendrin (Homo sapiens); test: Inhibition of pendrin in IL13-stimulated human CFBE assessed as reduction in gluconate gradient-induced intracellular alkalization at 25 uM; type: cell-based
Pendrin (Homo sapiens) [10] = target: T3, Pendrin (Homo sapiens); test: Inhibition of pendrin in human bronchial CFBE assessed as increase in airway surface liquid depth at 25 uM by rhodamine B-dextran fluorescence based confocal microscopy (reference value: -16 um)
Mus musculus [11] = test: Potentiation of 20 mg/kg, ip bid for 8 days furosemide-induced chronic diuretic action in CD1 mouse assessed as increase in urine volume at 10 mg/kg, ip measured at 3 hrs relative to control; type: functional

IC50 (Pendrin)	inhibition (Pendrin (Mus musculus) [1])	inhibition (Pendrin (Mus musculus) [2])	inhibition (Pendrin (Homo sapiens) [6])	inhibition (Homo sapiens [7])	inhibition (Pendrin (Homo sapiens) [9])	Activity (Pendrin (Homo sapiens) [10])	Structure (SMILES)	Activity (Mus musculus [3])	Activity (Mus musculus [4])	Activity (Mus musculus [5])	Activity (Homo sapiens [8])	Activity (Mus musculus [11])
8 µM	Dose-dependent effect	Dose-dependent effect	–	–	–	–	Cc1n[nH]c(-c2cc(S(=O)(=O)NC3CCCc4ccccc43)c(C)s2)c1C (configuration not stated)	inactive	Active	Active	–	–
–	–	–	50%	inactive	Active	-8 µm	Cn1nc(COc2cccc(F)c2)c2c1CCN(C(=O)Nc1ccc(Cl)cc1)C2	–	–	–	inactive	60%
